Laboratory results published in patent US10526388B2, “Peptide derived from GPC3, pharmaceutical composition for treatment or prevention of cancer using the same, immunity inducer, and method for producing antigen-presenting cells” (CYTLIMIC INC., priority 2015, dated 2020).
Ends that are not written are not given here.

Legend:
HLA-A*02:01 molecule = HLA-A*02:01 molecule (Homo sapiens, UniProt P04439, D140Y/D185E/D98H/E176V/E277Q/G131W/G231S/I119V/I121R/I166T/I218V/L300P/L318F/N151K/N90K/P208A/P217A/Q86G/Q94H/R138H/R169H/T345S); test: Binding experiment of peptide to HLA-A*02:01 molecule (T2 cells, antibody BB7.2, flow cytometer); details: for Kd: T2 cells, 37° C. 4 hours, negative figures given (log of Kd value)
Experimental: The binding capacity of each peptide to the HLA-A*02:01 molecule as the product of HLA-A*02:01 gene was measured using a cell line, T2, (purchased from ATCC) expressing the HLA-A*02:01 molecule.
T2 cells and purified β2m were added to stepwise dilution series of a peptide whose binding capacity was to be measured, which was then incubated at 37° C. for 4 hours.
(§1) Thereafter, the amount of fluorescence per cell was measured using a flow cytometer, and the dissociation constant, Kd value, was calculated using a method as published in a paper by the present inventor (Udaka et al., Immunogenetics, 51, 816-828, 2000).

CD8T cells = test: Immunity induction test of peptide (peptide-stimulated dendritic cells cocultured with CD8T cells, IFN-γ ELISPOT / ELISA); type: cell-based, human
Experimental: (1) Preparation of Peptide-stimulated Dendritic Cell
Of peripheral blood monocytes obtained by pheresis from the patient treated with HSP70 dendritic cell therapy, a cell fraction adhering to the culture flask was cultured in AIM-CM medium (trade name “Gibco” from Thermo Fisher Scientific Co., Ltd.) at 37° C. for 10 days. During culture, 15 μl of IL-4 and 30 μl of granulocyte-monocyte colony-stimulating factor (GM-CSF) were added to the medium at day 0 and day 3, and 15 μl of IL-4, 30 μl of GM-CSF, and 75 μl of tumor necrosis factor (TNF)-α were added at day 5.
The dendritic cells induced were newly recovered into AIM-CM medium, and the peptides of the present invention (SEQ ID NOS: 1 to 11) were each added to 20 μg/ml. […]
The dendritic cells were recovered, washed 3 times or more with a sufficient amount of AIM-CM medium, and counted. […]
Using CD8 Negative Selection Kit (from Miltenyi Biotec), CD8T cells were separated from the medium and counted. […]
A culture supernatant at day 7 after coculture of T cells with dendritic cells pulsed with each of the above peptides was diluted to the 4 levels of ×1, ×5, ×25, and ×125 to identify the dilution level falling within the limit of measurement using Human IFN-γ ELISA MAX Deluxe Set (from BioLegend Inc.). Thereafter, each sample was measured 3 times at the identified dilution level. […]

HLA-A*24:02 molecule = HLA-A*24:02 molecule (Homo sapiens, UniProt P04439, D101N/D140Y/D185E/E176V/E190D/F33S/G103R/G107R/I119L/I121M/I306V/K335N/L105A/L180Q/L300P/N151K/N90K/Q86E/Q94H/R106L/R138H/R89G/T104I/T345S/V100E/W191G/Y123F); test: Binding experiment of peptide to HLA-A*24:02 molecule (C1R-A24 cells, antibody 17A12, FACScan); details: for Kd: C1R-A24 cells, on ice 4 hours, negative figures given (log of Kd value)
Experimental: The binding capacity of each peptide to the HLA-A*24:02 molecule as the product of HLA-A*24:02 gene was measured using C1R-A24 cells expressing the HLA-A*24:02 molecule (the cells prepared by Prof. Masafumi Takeguchi, Kumamoto University were gifted by Assoc. Prof. Masaki Yasukawa, Ehime University with permission).
First, C1R-A24 cells were exposed to acidic conditions of pH 3.3 for 30 seconds to dissociate and remove endogenous peptides which were originally bound to the HLA-A*24:02 molecule and a light chain, […], which was commonly associated with HLA class I molecules. After neutralization, purified β2m was added to the C1R-A24 cells, which was then added to peptide dilution series. The mixtures were each then incubated on ice for 4 hours. The 3-molecule assembly (MHC-pep) consisting of the HLA-A*24:02 molecule, the peptide, and β2 m which had been reasociated during the incubation was stained with a fluorescent labeled monoclonal antibody, 17A12, recognizing the assembly.
Subsequently, the number of MHC-pep's per C1R-A24 cell (which is proportional to the fluorescent intensity of the above fluorescent antibody) was quantitatively measured using a fluorescent cell analyzer, FACScan (Becton, Dickinson and Company). The binding dissociation constant, Kd value, between the HLA-A*24:02 molecule and the peptide was calculated from the average fluorescent intensity per cell using a method as published in a paper (Udaka et al., Immunogenetics, 51, 816-828, 2000) by the present inventor.

HLA-A*02:06 molecule = target: T1, HLA-A*02:06 molecule (Homo sapiens, UniProt P04439, D140Y/D185E/D98H/E176V/E277Q/F33Y/G131W/G231S/I119V/I121R/I166T/I218V/L300P/L318F/N151K/N90K/P208A/P217A/Q86G/Q94H/R138H/R169H/T345S); test: Binding experiment of peptide to HLA-A*02:06 molecule (RA2.6 cells, antibody BB7.2, flow cytometer); details: for Kd: RA2.6 cells, 26° C. 60 minutes then 35° C. 4 hours, negative figures given (log of Kd value)
T1 construct: expressed in transfected cells; host or cells: RA2.6 cells (RMAS mouse TAP-deficient line carrying HLA-A*02:06 cDNA; prepared at Kochi University)
Experimental: The binding capacity of each peptide to the HLA-A*02:06 molecule as the product of HLA-A*02:06 gene was measured using RA2.6 cells (a cell line newly prepared at Kochi University) in which cDNA of the HLA-A*02:06 gene was introduced into RMAS as a mouse TAP (transporter associated with antigen processing)-deficient cell line.
First, the RA2.6 cells were cultured overnight at 26° C. to accumulate the HLA-A*02:06 molecules unbound to the peptide on the cell surface. Any of peptide dilution series was added thereto for binding at 26° C. for 60 minutes.
Subsequently, the mixture was cultured at 35° C. for 4 hours, resulting in the denaturation of the empty HLA-A*02:06 molecule unbound to the peptide and the loss of its steric structure. A fluorescent labeled monoclonal antibody, BB7.2, specifically recognizing a peptide-bound HLA-A*02:06 molecule, was added thereto, which was then incubated on ice for 20 minutes to stain the cells.
as §1

| Sequence | binding to HLA-A*02:01 molecule (in words) (HLA-A*02:01 molecule) | Kd (HLA-A*02:01 molecule) [µM] | immunogenicity (in words) (CD8T cells) | binding to HLA-A*24:02 molecule (in words) (HLA-A*24:02 molecule) | Kd (HLA-A*24:02 molecule) [µM] | binding to HLA-A*02:06 molecule (in words) (HLA-A*02:06 molecule) | Kd (HLA-A*02:06 molecule) [µM] |
| --- | --- | --- | --- | --- | --- | --- | --- |
| ALNLGIEVI [SEQ ID NO: 7, ALNLGIEVI] | strongly binds | 1.21 | high immunogenicity | strongly binds | 111 | strongly binds | 69 |
| ARLNMEQLL [SEQ ID NO: 11, ARLNMEQLL] | – | 144 | – | – | 6.26 | – | 1720 |
| GMIKVKNQL [SEQ ID NO: 10, GMIKVKNQL] | – | 17.5 | – | – | 0.125 | – | 439 |
| GYICSHSPV [SEQ ID NO: 6, GYICSHSPV] | – | > 1000 | – | – | 0.283 | – | > 1000 |
| KLTTTIGKL [SEQ ID NO: 9, KLTTTIGKL] | – | 10.7 | – | – | 6.14 | – | 9.25 |
| LFDSLFPVI [SEQ ID NO: 2, LFDSLFPVI] | – | 8.61 | – | – | 0.0374 | – | > 1000 |
| LLQSASMEL [SEQ ID NO: 8, LLQSASMEL] | – | 0.73 | – | – | 3.25 | – | 1.33 |
| MVNELFDSL [SEQ ID NO: 1, MVNELFDSL] | – | 4.94 | – | – | 20 | – | 0.724 |
| SALDINECL [SEQ ID NO: 3, SALDINECL] | – | > 1000 | – | – | > 1000 | – | 0.483 |
| SLQVTRIFL [SEQ ID NO: 4, SLQVTRIFL] | – | 0.616 | – | – | 4.61 | – | 6.11 |
| SLTPQAFEF [SEQ ID NO: 5, SLTPQAFEF] | – | 11.9 | – | – | 0.077 | – | 30.5 |
